Reference: ChEMBL document CHEMBL2074329, “Characterization of the transport of a cationic octapeptide, octreotide, in rat bile canalicular membrane: possible involvement of P-glycoprotein” (Biol Pharm Bull, 1998)
Bridge positions count the residues as written; N and C are the ends. Square brackets hold non-standard residues; d marks the D form. Peptide text beside a SMILES is read from it. * marks the point of attachment. Threoninol(2S,3R) = C[C@@H](O)[C@H](CO)N*

Target: Multidrug resistance protein 1a (Rattus norvegicus) (UniProt Q6PSM0)
Sequence (Q6PSM0 as listed by the source): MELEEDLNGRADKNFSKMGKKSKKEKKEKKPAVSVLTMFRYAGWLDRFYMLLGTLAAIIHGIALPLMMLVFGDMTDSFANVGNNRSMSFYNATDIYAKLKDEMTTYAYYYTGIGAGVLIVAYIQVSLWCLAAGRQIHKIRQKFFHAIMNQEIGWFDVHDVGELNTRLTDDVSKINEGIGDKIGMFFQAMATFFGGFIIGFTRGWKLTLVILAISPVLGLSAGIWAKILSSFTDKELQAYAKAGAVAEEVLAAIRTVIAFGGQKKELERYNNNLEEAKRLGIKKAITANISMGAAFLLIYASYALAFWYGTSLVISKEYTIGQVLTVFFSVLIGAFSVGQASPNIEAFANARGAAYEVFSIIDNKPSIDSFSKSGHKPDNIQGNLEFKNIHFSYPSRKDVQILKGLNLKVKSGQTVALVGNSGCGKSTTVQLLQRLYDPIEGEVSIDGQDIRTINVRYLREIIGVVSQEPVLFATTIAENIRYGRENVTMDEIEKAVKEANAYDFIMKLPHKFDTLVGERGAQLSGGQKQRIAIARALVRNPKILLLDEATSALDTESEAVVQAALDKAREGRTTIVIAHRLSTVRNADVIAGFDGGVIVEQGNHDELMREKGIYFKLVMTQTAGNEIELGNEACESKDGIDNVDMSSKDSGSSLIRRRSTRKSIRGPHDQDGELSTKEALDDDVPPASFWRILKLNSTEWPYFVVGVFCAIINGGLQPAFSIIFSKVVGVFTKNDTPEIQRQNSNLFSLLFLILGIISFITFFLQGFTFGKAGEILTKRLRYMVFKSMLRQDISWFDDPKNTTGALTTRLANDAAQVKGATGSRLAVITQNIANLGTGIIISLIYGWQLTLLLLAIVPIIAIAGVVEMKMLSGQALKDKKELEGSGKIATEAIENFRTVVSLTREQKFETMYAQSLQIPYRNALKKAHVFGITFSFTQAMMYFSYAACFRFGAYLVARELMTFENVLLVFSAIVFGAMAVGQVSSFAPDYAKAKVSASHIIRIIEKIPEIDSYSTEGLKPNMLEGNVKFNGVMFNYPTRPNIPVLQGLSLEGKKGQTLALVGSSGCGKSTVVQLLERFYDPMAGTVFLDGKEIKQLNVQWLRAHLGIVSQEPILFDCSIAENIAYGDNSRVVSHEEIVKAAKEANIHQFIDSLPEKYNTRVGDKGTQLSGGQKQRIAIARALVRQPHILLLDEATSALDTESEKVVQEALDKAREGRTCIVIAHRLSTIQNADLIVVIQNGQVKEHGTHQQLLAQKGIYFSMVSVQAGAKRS
Assay: TP_TRANSPORTER: uptake, inhibited by Verapamil, Vincristine and PSC833 in bile canalicular membrane vesicles from SD rat
Assay type: functional, cell membranes
Settings: Sprague-Dawley, Bile canalicular membrane vesicle

## C[C@@H](O)[C@H](CO)NC(=O)[C@@H]1CSSC[C@H](NC(=O)[C@H](N)Cc2ccccc2)C(=O)N[C@@H](Cc2ccccc2)C(=O)N[C@H](Cc2c[nH]c3ccccc23)C(=O)N[C@@H](CCCCN)C(=O)N[C@@H]([C@@H](C)O)C(=O)N1 (H-[dF]CF[dW]KTC-{Threoninol(2S,3R)}; disulfide 2-7)
  Activity: substrate [+]
